The source made the active and inactive calls. The rule behind the calls is not given here.
Tested on: rodent lifetime carcinogenesis bioassay, tumor incidence TD50
Assay: carcinogenic potency in animals, long-term in vivo studies, CPDB compilation (AID 1745844)

ClC=C(Cl)Cl
TD50 (mouse, strain Swiss, males, inhaled, site: any site (literature study), lesion: several types, types named in the paper, dosed 78 weeks, study length 145 weeks): 8070 mg/kg/day | TD50 (mouse, strain Swiss, males, inhaled, site: liver, lesion: hepatoma, dosed 78 weeks, study length 145 weeks): 3910 mg/kg/day | TD50 (mouse, strain Swiss, males, inhaled, site: lung, lesion: one or several types, types not named, dosed 78 weeks, study length 145 weeks): 10100 mg/kg/day | TD50 (rat, strain ACI, females, by gavage, site: any site (literature study), lesion: several types, types named in the paper, dosed 103 weeks, study length 104 weeks): 61700 mg/kg/day | TD50 (rat, strain ACI, females, by gavage, site: kidney, lesion: adenocarcinoma, NOS + tubular-cell adenocarcinoma, dosed 103 weeks, study length 104 weeks): 7800 mg/kg/day | TD50 (rat, strain ACI, females, by gavage, site: kidney, lesion: adenocarcinoma, NOS + tubular-cell adenoma + tubular-cell adenocarcinoma, dosed 103 weeks, study length 104 weeks): 3760 mg/kg/day | TD50 (rat, strain ACI, males, by gavage, site: any site (literature study), lesion: several types, types named in the paper, dosed 103 weeks, study length 104 weeks): 820 mg/kg/day | TD50 (rat, strain ACI, males, by gavage, site: kidney, lesion: tubular-cell adenocarcinoma, dosed 103 weeks, study length 104 weeks): 12000 mg/kg/day | TD50 (rat, strain ACI, males, by gavage, site: liver, lesion: hepatocellular adenoma + hepatocellular carcinoma + neoplastic nodule, dosed 103 weeks, study length 104 weeks): 9400 mg/kg/day | TD50 (rat, strain August, females, by gavage, site: kidney, lesion: tubular-cell adenoma + tubular-cell adenocarcinoma, dosed 103 weeks, study length 104 weeks): 2240 mg/kg/day | TD50 (rat, strain August, males, by gavage, site: kidney, lesion: tubular-cell adenocarcinoma, dosed 103 weeks, study length 104 weeks): 10800 mg/kg/day | TD50 (rat, strain August, males, by gavage, site: kidney, lesion: tubular-cell adenoma + tubular-cell adenocarcinoma, dosed 103 weeks, study length 104 weeks): 3810 mg/kg/day | TD50 (rat, strain August, males, by gavage, site: liver, lesion: hepatocellular adenoma + hepatocellular carcinoma + neoplastic nodule, dosed 103 weeks, study length 104 weeks): 6440 mg/kg/day | TD50 (rat, strain August, males, by gavage, site: subcutaneous tissue, lesion: sarcoma, NOS + sarcoma, NOS, dosed 103 weeks, study length 104 weeks): 3730 mg/kg/day | TD50 (rat, strain Charles River CD (Sprague-Dawley), females, inhaled, site: kidney, lesion: tubular-cell adenocarcinoma, dosed 104 weeks, study length 107 weeks): 10700 mg/kg/day | TD50 (rat, strain Charles River CD (Sprague-Dawley), females, inhaled, site: liver, lesion: several types, types named in the paper, dosed 104 weeks, study length 107 weeks): 12300 mg/kg/day | TD50 (rat, strain Charles River CD (Sprague-Dawley), females, inhaled, site: mammary gland, lesion: fibroadenoma, dosed 104 weeks, study length 107 weeks): 982 mg/kg/day | TD50 (rat, strain Fischer 344, females, by gavage, site: any site (literature study), lesion: several types, types named in the paper, dosed 103 weeks, study length 103 weeks): 5710 mg/kg/day (inactive) | TD50 (rat, strain Fischer 344, females, by gavage, site: kidney, lesion: tubular-cell adenocarcinoma, dosed 103 weeks, study length 103 weeks): 23000 mg/kg/day | TD50 (rat, strain Fischer 344, females, by gavage, site: liver, lesion: hepatocellular adenoma + hepatocellular carcinoma + neoplastic nodule, dosed 103 weeks, study length 103 weeks): 9980 mg/kg/day | TD50 (rat, strain Fischer 344, males, by gavage, site: any site (literature study), lesion: several types, types named in the paper, dosed 103 weeks, study length 103 weeks): 2240 mg/kg/day | TD50 (rat, strain Fischer 344, males, by gavage, site: kidney, lesion: tubular-cell adenocarcinoma, dosed 103 weeks, study length 103 weeks): 3920 mg/kg/day | TD50 (rat, strain Fischer 344, males, by gavage, site: kidney, lesion: tubular-cell adenoma + tubular-cell adenocarcinoma, dosed 103 weeks, study length 103 weeks): 2780 mg/kg/day | TD50 (rat, strain Fischer 344, males, by gavage, site: liver, lesion: hepatocellular adenoma + hepatocellular carcinoma + neoplastic nodule, dosed 103 weeks, study length 103 weeks): 12200 mg/kg/day | TD50 (rat, strain Fischer 344, males, by gavage, site: peritoneum, lesion: mesothelioma, NOS + mesothelioma, malignant, dosed 103 weeks, study length 103 weeks): 1490 mg/kg/day | TD50 (rat, strain Fischer 344, males, by gavage, site: peritoneum, lesion: mesothelioma, malignant, dosed 103 weeks, study length 103 weeks): 1490 mg/kg/day | TD50 (rat, strain Han:WIST, females, inhaled, site: any site (literature study), lesion: benign tumor, dosed 78 weeks, study length 156 weeks): 2120 mg/kg/day (inactive) | carcinogen call (rat, strain Han:WIST, females, inhaled, site: any site (literature study), lesion: malignant tumor, dosed 78 weeks, study length 156 weeks): negative (inactive) | TD50 (rat, strain Han:WIST, females, inhaled, site: kidney, lesion: tubular-cell adenoma, dosed 78 weeks, study length 156 weeks): 5500 mg/kg/day (inactive) | carcinogen call (rat, strain Han:WIST, females, inhaled, site: liver, lesion: hepatocellular adenoma, dosed 78 weeks, study length 156 weeks): negative (inactive) | carcinogen call (rat, strain Han:WIST, males, inhaled, site: any site (literature study), lesion: benign tumor, dosed 78 weeks, study length 156 weeks): negative (inactive) | TD50 (rat, strain Han:WIST, males, inhaled, site: any site (literature study), lesion: malignant tumor, dosed 78 weeks, study length 156 weeks): 351 mg/kg/day (inactive) | TD50 (rat, strain Han:WIST, males, inhaled, site: kidney, lesion: tubular-cell adenocarcinoma, dosed 78 weeks, study length 156 weeks): 3850 mg/kg/day (inactive)

From PubChem BioAssay AID1745844 (Carcinogenic Potency Database (CPDB), 2022)
